# From PubChem BioAssay AID1845197 (Molecular Pharmacology Branch, DTP, NCI, 2023)
# System: 349418-098-R tumor spheroid viability
# Assay: Anticancer human tumor 349418-098-R patient-derived lung adenocarcinoma cell line growth inhibition
# Settings: spheroids with HUVEC and MSC; for IC50: curve of first compound; for viability, T/C: stronger effect = lower value
# How it was run: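 Single agents and combinations were tested on spheroids built from tumor cells plus HUVEC and hMSC, at half-log dilutions starting at or near clinical Cmax, else 10 microM; final DMSO 0.25% (v/v).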
# [1] = second compound 1 µM, first compound 0.0316 µM
# [2] = second compound 1 µM, first compound 0.1 µM
# [3] = second compound 1 µM, first compound 0.316 µM
# [4] = second compound 1 µM, first compound 1 µM
# [5] = second compound 1 µM, first compound 3.16 µM
# [6] = second compound 1 µM, first compound 10 µM
# [7] = second compound 3.16 µM, first compound 0.0316 µM
# [8] = second compound 3.16 µM, first compound 0.1 µM
# [9] = second compound 3.16 µM, first compound 0.316 µM
# [10] = second compound 3.16 µM, first compound 1 µM
# [11] = second compound 3.16 µM, first compound 3.16 µM
# [12] = second compound 3.16 µM, first compound 10 µM
# [13] = second compound 10 µM, first compound 0.0316 µM
# [14] = second compound 10 µM, first compound 0.1 µM
# [15] = second compound 10 µM, first compound 0.316 µM
# [16] = second compound 10 µM, first compound 1 µM
# [17] = second compound 10 µM, first compound 3.16 µM
# [18] = second compound 10 µM, first compound 10 µM
# [19] = second compound 31.6 µM, first compound 0.0316 µM
# [20] = second compound 31.6 µM, first compound 0.1 µM
# [21] = second compound 31.6 µM, first compound 0.316 µM
# [22] = second compound 31.6 µM, first compound 1 µM
# [23] = second compound 31.6 µM, first compound 3.16 µM
# [24] = second compound 31.6 µM, first compound 10 µM
# [25] = second compound 100 µM, first compound 0.0316 µM
# [26] = second compound 100 µM, first compound 0.1 µM
# [27] = second compound 100 µM, first compound 0.316 µM
# [28] = second compound 100 µM, first compound 1 µM
# [29] = second compound 100 µM, first compound 3.16 µM
# [30] = second compound 100 µM, first compound 10 µM
# 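Note: spheroids exposed to compound for 7 days before measurement.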
# 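Throughout, for viability, T/C: percent of vehicle control viability with 100% = DMSO-treated spheroids.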
SMILES,IC50 (second compound 1 µM) [µM],IC50 (second compound 3.16 µM) [µM],IC50 (second compound 10 µM) [µM],IC50 (second compound 31.6 µM) [µM],IC50 (second compound 100 µM) [µM],"viability, T/C [1] [%]","viability, T/C [2] [%]","viability, T/C [3] [%]","viability, T/C [4] [%]","viability, T/C [5] [%]","viability, T/C [6] [%]","viability, T/C [7] [%]","viability, T/C [8] [%]","viability, T/C [9] [%]","viability, T/C [10] [%]","viability, T/C [11] [%]","viability, T/C [12] [%]","viability, T/C [13] [%]","viability, T/C [14] [%]","viability, T/C [15] [%]",also measured
CC(C)n1c(=O)n(C)c2cnc3cc(F)c(-c4ccc(OCCCN5CCCCC5)nc4)cc3c21 + Cn1nnc2c(C(N)=O)ncn2c1=O,9.75,9,9.25,8.89,8.48,104,99.5,101,101,103,48.8,102,105,103,103,102,44.7,98.6,103,99.6,"viability, T/C [16]: 103%; viability, T/C [17]: 104%; viability, T/C [18]: 46.3%; viability, T/C [19]: 102%; viability, T/C [20]: 106%; viability, T/C [21]: 98.4%; viability, T/C [22]: 105%; viability, T/C [23]: 105%; viability, T/C [24]: 43.9%; viability, T/C [25]: 103%; viability, T/C [26]: 107%; viability, T/C [27]: 105%; viability, T/C [28]: 102%; viability, T/C [29]: 102%; viability, T/C [30]: 41.3%"
CC1COCCN1c1cc(-c2ccnn2C)c2ccnc(-c3ccn[nH]3)c2n1 (stereo not given) + Cn1nnc2c(C(N)=O)ncn2c1=O,0.0664,0.064,0.0614,0.0679,0.0526,90.2,27.8,11.8,11.1,11.1,10.9,90.5,24.4,12.5,10.3,11.1,10.4,90.7,20,11.9,"viability, T/C [16]: 9.88%; viability, T/C [17]: 11.1%; viability, T/C [18]: 9.65%; viability, T/C [19]: 91.9%; viability, T/C [20]: 28.8%; viability, T/C [21]: 10.5%; viability, T/C [22]: 9.5%; viability, T/C [23]: 11.8%; viability, T/C [24]: 10.2%; viability, T/C [25]: 77.9%; viability, T/C [26]: 14.8%; viability, T/C [27]: 9.79%; viability, T/C [28]: 9.43%; viability, T/C [29]: 9.05%; viability, T/C [30]: 9.14%"
COc1cc(C)[nH]c(=O)c1CN1CCc2c(Cl)cc(C(OC)C3COC3)c(Cl)c2C1=O (stereo not given) + Cn1nnc2c(C(N)=O)ncn2c1=O,> 10,> 10,> 10,> 10,> 10,102,99.6,92.1,90.6,83.7,79.4,103,98.5,95.7,84.2,84,83.6,98.7,96.7,92.3,"viability, T/C [16]: 95.1%; viability, T/C [17]: 85%; viability, T/C [18]: 81.9%; viability, T/C [19]: 104%; viability, T/C [20]: 98.5%; viability, T/C [21]: 93.4%; viability, T/C [22]: 93.3%; viability, T/C [23]: 84.8%; viability, T/C [24]: 78.4%; viability, T/C [25]: 99%; viability, T/C [26]: 98.7%; viability, T/C [27]: 96.3%; viability, T/C [28]: 87.4%; viability, T/C [29]: 87%; viability, T/C [30]: 81.8%"
COc1ccc([C@@H](O)c2cc(-c3ncnc4cc(N5CCOCC5)ccc34)c(F)cc2Cl)nn1 + Cn1nnc2c(C(N)=O)ncn2c1=O,5.61,5.09,5.17,4.27,3.61,97.6,95.6,101,97.7,73.3,26.4,103,99,106,102,70.1,21.3,99.8,97.5,103,"viability, T/C [16]: 104%; viability, T/C [17]: 66%; viability, T/C [18]: 28.5%; viability, T/C [19]: 99.1%; viability, T/C [20]: 104%; viability, T/C [21]: 101%; viability, T/C [22]: 106%; viability, T/C [23]: 59.8%; viability, T/C [24]: 22.2%; viability, T/C [25]: 102%; viability, T/C [26]: 112%; viability, T/C [27]: 107%; viability, T/C [28]: 102%; viability, T/C [29]: 53.4%; viability, T/C [30]: 24.1%"
Cc1cc(C)c(CNC(=O)c2cc(-c3ccc(CN4CCOCC4)cc3)cc3c2cnn3C2CCCC2)c(=O)[nH]1 + Cn1nnc2c(C(N)=O)ncn2c1=O,6.56,7.44,7.58,6.24,6.24,98,97.6,103,97.1,91.6,25.8,104,102,103,104,92.6,35.2,97.4,106,98.7,"viability, T/C [16]: 102%; viability, T/C [17]: 94.3%; viability, T/C [18]: 35.8%; viability, T/C [19]: 99.2%; viability, T/C [20]: 104%; viability, T/C [21]: 99.2%; viability, T/C [22]: 105%; viability, T/C [23]: 91.6%; viability, T/C [24]: 20.5%; viability, T/C [25]: 104%; viability, T/C [26]: 105%; viability, T/C [27]: 103%; viability, T/C [28]: 97.2%; viability, T/C [29]: 91.6%; viability, T/C [30]: 21.5%"
[2H]c1nc(C)nc([2H])c1-c1cc(NC[C@@H](C)c2cccc3c(C(=O)NC)ccnc23)ncn1 + Cn1nnc2c(C(N)=O)ncn2c1=O,> 10,> 10,> 10,> 10,> 10,98.9,103,98.7,97.9,102,97.3,109,105,104,98.3,104,103,104,96.6,102,"viability, T/C [16]: 106%; viability, T/C [17]: 101%; viability, T/C [18]: 104%; viability, T/C [19]: 97.8%; viability, T/C [20]: 110%; viability, T/C [21]: 101%; viability, T/C [22]: 104%; viability, T/C [23]: 103%; viability, T/C [24]: 104%; viability, T/C [25]: 106%; viability, T/C [26]: 109%; viability, T/C [27]: 106%; viability, T/C [28]: 106%; viability, T/C [29]: 108%; viability, T/C [30]: 110%"
